The target in assay [1] is T1, LasB elastase activity in dialysed supernatant from P. aeruginosa strain PA01 (Pseudomonas aeruginosa, UniProt P14756).
T1 construct: uses as source of enzyme dialysed supernatant from P. aeruginosa; endogenous in cells; host or cells: P. aeruginosa strain PA01 culture supernatant, filtered and dialysed
Description: Elastin Congo Red assay to determine % inhibition (Assay 1). In kind it is biochemical. To be noted: read-out: Elastin hydrolysis % inhibition @ 50/25 μM inhibitor concentration Assay 1. As for the experimental part: (§1) Experiments were therefore conducted (1) to measure the potency of inhibition of compounds of the invention against purified Pseudomonas aeruginosa LasB enzyme and also experiments were conducted (2) to measure the ability of compounds of the invention to inhibit LasB-catalysed elastin degradation. The first assay uses a commercial fluorescent synthetic peptide and purified LasB enzyme. The LasB hydrolysis kinetics are measured allowing the determination of the IC50 and Ki of the inhibitors; the second is a more physiological assay using dialysed Pseudomonas aeruginosa supernatant as source of enzyme, plus its natural substrate Elastin. It is an “end point assay” that determines the percentage of LasB inhibition by each compound for one particular time point and inhibitor concentration. Technical details are described below:
The Elastin assay uses as source of enzyme dialysed supernatant from P. aeruginosa and the elastin congo red as substrate. The natural LasB substrate, elastin, is complexed with the congo red dye (Elastin Congo Red, ECR). The elastolysis activity from the culture supernatant will degrade elastin and release the congo red dye into the supernatant. This red dye release can be measured with a spectrophotometer. Some compounds of Formula (I) were assessed using the method of Assay 1 (described below). Other compounds of Formula (I) were assessed using the alternative but equivalent method of Assay 2 (described below).
Method (Assay 1): To determine LasB elastase activity and assess compound inhibition, an overnight culture of P. aeruginosa strain PA01 is diluted thousand-fold in LB medium. This diluted solution is incubated during 19 hours in a shaking incubator. Culture supernatants are recovered by centrifugation and filtrated through a […] filter. These supernatants are dialysed (filtration molecules <20 kDa) into a 50 mM Tris pH 7.4, 2.5 mM CaCl2 solution at 4° C. under agitation for 24 hours. Supernatant dialysed is then mixed volume/volume with the ECR suspension (20 mg/mL of ECR in 100 mM Tris buffer supplemented with 1 mM CaCl2) supplemented with TritonX 100 (final concentration of 0.01%) in presence of different concentrations of compound (routinely 50 and 25 μM). The mixed reaction is then incubated for 24 hours in a 37° shaking incubator. As a negative control, the mixed supernatant is replaced by Tris solution (50 mM Tris pH 7.4, 2.5 mM CaCl2). The reaction supernatant is recovered by centrifugation and the release of congo red is measured by its absorbance at OD520. Percentage inhibition is determined using the following equation: (OD520 value of DMSO SN−OD520 value of LB)−(OD520 value of Compound SN−OD520 value of LB)/(OD520 value of DMSO SN−OD520 value of LB)×100.

For assay [2], the target named is T2, purified LasB protein from P. aeruginosa (Pseudomonas aeruginosa, UniProt P14756).
T2 construct: purchased Merck or Charles River Laboratories
Description: Fluorometric assay to determine Ki (Assay 1). In kind it is biochemical. To be noted: Ki (μM) Assay 1, purified LasB, substrate Abz-Ala-Gly-Leu-Ala-p-Nitro-Benzyl-Amide 250 μM, Ki calculated from IC50; inhibitor 0.006 to 200 μM. As for the experimental part: as §1
This assay uses commercially available substrate (Abz-Ala-Gly-Leu-Ala-p-Nitro-Benzyl-Amide (Ex: 340 nm, Em: 415 nm) from Peptide International) and purified LasB protein from P. aeruginosa (provided by Merck or Charles River Laboratories). It is performed to determine LasB elastase activity and assess compound inhibition in 96-well plate format. Some compounds of Formula (I) were assessed using the method of Assay 1 (described below). Other compounds of Formula (I) were assessed using the alternative but equivalent method of Assay 2 (described below).
Method: 10 to 140 ng/ml purified LasB is incubated with 250 μM Abz-Ala-Gly-Leu-Ala-p-Nitro-Benzyl-Amide in 50 mM Tris-HCl pH 7.4, 2.5 mM CaCl2), 0.01% of Triton X100 at 37° C. LasB activity (corresponding to fluorescence emission induced by substrate hydrolysis) is measured over 30 min at 37° C. with a fluorescence plate reader such as the Perkin Elmer Envision or similar. Different range of inhibitor concentrations are routinely assessed depending of inhibitor potency from 0.006 to 200 μM (Assay 1; 2-fold dilutions series) or from 0.0016 to 200 μM (Assay 2; 2-fold dilutions series) in order to determine IC50.
The equation used to calculate the Ki from IC50 is: Ki=IC50/(1+([S]/Km)) where [S]=250 μM and Km=214 μM.

T1 sequence (P14756 198-498): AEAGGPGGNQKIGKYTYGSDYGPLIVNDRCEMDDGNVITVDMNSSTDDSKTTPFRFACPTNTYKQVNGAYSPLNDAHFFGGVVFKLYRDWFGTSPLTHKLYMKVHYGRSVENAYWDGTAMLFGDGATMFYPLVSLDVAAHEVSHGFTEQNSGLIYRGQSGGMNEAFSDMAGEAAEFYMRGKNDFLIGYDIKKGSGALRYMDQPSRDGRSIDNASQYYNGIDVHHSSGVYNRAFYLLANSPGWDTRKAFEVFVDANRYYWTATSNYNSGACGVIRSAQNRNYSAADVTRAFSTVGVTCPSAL
T2 sequence (P14756 198-498): as above

In the case of `O=C(O)CC1(C(=O)N[C@@H](Cc2c[nH]c3ccccc23)C(=O)O)Cc2ccccc2C1` [Example 50, (2-(carboxymethyl)-2,3-dihydro-1H-indene-2-carbonyl)-L-tryptophan], the inhibition at 50 µM in assay [1] is greater than 60%. Further, the Ki in assay [2] was less than 0.3 µM.

`O=C(O)CC1(C(=O)NCc2coc3ccccc23)Cc2ccccc2C1` [Example 57, 2-[2-(benzofuran-3-ylmethylcarbamoyl)indan-2-yl]acetic acid]: in assay [1], the inhibition at 50 µM is 30 to 60%. For the same compound, in assay [2], the Ki was 0.3 to 2 µM.

For `CC(C)(C)OC(=O)[C@H](Cc1c[nH]c2ccccc12)NC(=O)C1(CC(=O)O)Cc2ccccc2C1` [Example 47, (S)-2-(2-((1-(tert-butoxy)-3-(1H-indol-3-yl)-1-oxopropan-2-yl)carbamoyl)-2,3-dihydro-1H-inden-2-yl)acetic acid], the inhibition at 50 µM in assay [1] was greater than 60%. For the same compound, the Ki in assay [2] is less than 0.3 µM.

In the case of `C[N+](C)(C)C1CN(c2ccc3nc(CNC(=O)C4(CC(=O)[O-])Cc5ccccc5C4)sc3c2)C1` [Example 68, 2-[2-[[6-[3-(trimethylammonio)azetidin-1-yl]-1,3-benzothiazol-2-yl]methylcarbamoyl]indan-2-yl]acetate], the inhibition at 50 µM in assay [1] was in the range of 30 to 60%. In assay [2], the Ki is 0.3 to 2 µM.

On to `CN(C)CC#Cc1ccc2nc(CNC(=O)C3(CC(=O)O)Cc4ccccc4C3)sc2c1` [Example 35, 2-[2-[[6-[3-(dimethylamino)prop-1-ynyl]-1,3-benzothiazol-2-yl]methylcarbamoyl]indan-2-yl]acetic acid], for which, in assay [1], the inhibition at 50 µM was greater than 60%. In addition, the Ki in assay [2] was less than 0.3 µM.

Turning to `O=C(O)CC1(C(=O)NCc2nc3c(I)cccc3s2)Cc2ccccc2C1` [Example 63, 2-(2-(((4-iodobenzo[d]thiazol-2-yl)methyl)carbamoyl)-2,3-dihydro-1H-inden-2-yl)acetic acid], the inhibition at 50 µM in assay [1] is greater than 60%. Further, the Ki in assay [2] was less than 0.3 µM.

As to `CN1CCc2nc(CNC(=O)C3(CC(=O)O)Cc4ccccc4C3)sc2C1` [Example 129, 2-[2-[(5-methyl-6,7-dihydro-4H-thiazolo[5,4-c]pyridin-2-yl)methylcarbamoyl]indan-2-yl]acetic acid], the inhibition at 50 µM in assay [1] lay in the range of 30 to 60%. Besides, in assay [2], the Ki is 0.3 to 2 µM.

As to `Cc1c(CNC(=O)C2(CC(=O)O)Cc3ccccc3C2)oc2ccccc12` [Example 11, 2-(2-{[2-(3-methyl-1-benzofuran-2-yl)methyl]carbamoyl}-2,3-dihydro-1H-inden-2-yl)acetic acid], in assay [1], the inhibition at 50 µM fell in the range of 30 to 60%. The Ki in assay [2] was 0.3 to 2 µM.

Turning to `CN(C)C[C@H]1C[C@@H](c2ccc3nc(CNC(=O)C4(CC(=O)O)Cc5ccccc5C4)sc3c2)C1` [Example 93, 2-(2-(((6-((1s,3s)-3-((dimethylamino)methyl)cyclobutyl)benzo[d]thiazol-2-yl)methyl)carbamoyl)-2,3-dihydro-1H-inden-2-yl)acetic acid], in assay [1], the inhibition at 50 µM is greater than 60%. Also, the Ki in assay [2] was less than 0.3 µM.

Turning to `NCCCc1ccc2sc(CNC(=O)C3(CC(=O)O)Cc4ccccc4C3)nc2c1` [Example 40, 2-[2-[[5-(3-aminopropyl)-1,3-benzothiazol-2-yl]methylcarbamoyl]indan-2-yl]acetic acid], the inhibition at 50 µM in assay [1] was greater than 60%. In addition, the Ki in assay [2] was less than 0.3 µM.

Consider `CCOc1cccc2sc(CNC(=O)C3(CC(=O)O)Cc4ccccc4C3)nc12` [Example 64, 2-(2-(((4-ethoxybenzo[d]thiazol-2-yl)methyl)carbamoyl)-2,3-dihydro-1H-inden-2-yl)acetic acid], for which the inhibition at 50 µM in assay [1] was greater than 60%. In addition, the Ki in assay [2] was 0.3 to 2 µM.

For the compound `C[N+]1(C)CCC(OC(=O)[C@H](Cc2c[nH]c3ccccc23)NC(=O)C2(CC(=O)O)Cc3ccccc3C2)CC1` [Example 116, (S)-2-(2-((1-((1,1-dimethylpiperidin-1-ium-4-yl)oxy)-3-(1H-indol-3-yl)-1-oxopropan-2-yl)carbamoyl)-2,3-dihydro-1H-inden-2-yl)acetate], in assay [1], the inhibition at 50 µM was greater than 60%. For the same compound, the Ki in assay [2] was 0.3 to 2 µM.

On to `O=C(O)CC1(C(=O)NCc2nc3c(s2)CNCC3)Cc2ccccc2C1` [Example 44, 2-[2-(4,5,6,7-tetrahydrothiazolo[5,4-c]pyridin-2-ylmethylcarbamoyl)indan-2-yl]acetic acid], for which the inhibition at 50 µM in assay [1] lay in the range of 15 to 30%. Moreover, in assay [2], the Ki is 2 to 10 µM.

For `CN(C)C[C@H]1C[C@H](c2ccc3nc(CNC(=O)C4(CC(=O)O)Cc5ccccc5C4)sc3c2)C1` [Example 91, 2-(2-(((6-((1 r,3r)-3-((dimethylamino)methyl)cyclobutyl)benzo[d]thiazol-2-yl)methyl)carbamoyl)-2,3-dihydro-1H-inden-2-yl)acetic acid], in assay [1], the inhibition at 50 µM is greater than 60%. The inhibition constant Ki in assay [2] was less than 0.3 µM.

For `O=C(O)CC1(C(=O)NCc2nc3cc(Cl)ccc3[nH]2)Cc2ccccc2C1` [Example 1, 2-(2-{[(5-Chloro-1H-1,3-benzodiazol-2-yl)methyl]carbamoyl}-2,3-dihydro-1H-inden-2-yl)acetic acid], the inhibition at 50 µM in assay [1] is 30 to 60%. The Ki in assay [2] is 0.3 to 2 µM.

As for `Cc1nnc([C@H](Cc2c[nH]c3ccccc23)NC(=O)C2(CC(=O)O)Cc3ccccc3C2)o1` [Example 117, (S)-2-(2-((2-(1H-indol-3-yl)-1-(5-methyl-1,3,4-oxadiazol-2-yl)ethyl)carbamoyl)-2,3-dihydro-1H-inden-2-yl)acetic acid], the inhibition at 50 µM in assay [1] is greater than 60%. Moreover, the Ki in assay [2] was 0.3 to 2 µM.

On to `N[C@H]1CCN(c2ccc3sc(CNC(=O)C4(CC(=O)O)Cc5ccccc5C4)nc3c2)C1` [Example 103, 2-[2-[[5-[(3 S)-3-aminopyrrolidin-1-yl]-1,3-benzothiazol-2-yl]methylcarbamoyl]indan-2-yl]acetic acid], for which the inhibition at 50 µM in assay [1] is greater than 60%. Also, the Ki in assay [2] was 0.3 to 2 µM.

On to `NCCNc1ccc2sc(CNC(=O)C3(CC(=O)O)Cc4ccccc4C3)nc2c1` [Example 72, 2-[2-[[5-(2-aminoethylamino)-1,3-benzothiazol-2-yl]methylcarbamoyl]indan-2-yl]acetic acid], for which the inhibition at 50 µM in assay [1] is greater than 60%. Also, the Ki in assay [2] is 0.3 to 2 µM.

With `N[C@H]1CCN(c2ccc3nc(CNC(=O)C4(CC(=O)O)Cc5ccccc5C4)sc3c2)C1` [Example 101, 2-[2-[[6-[(3 S)-3-aminopyrrolidin-1-yl]-1,3-benzothiazol-2-yl]methylcarbamoyl]indan-2-yl]acetic acid], in assay [1], the inhibition at 50 µM was greater than 60%. In addition, the Ki in assay [2] was 0.3 to 2 µM.

Consider `O=C(O)CC1(C(=O)NCc2nc3cnccc3s2)Cc2ccccc2C1` [Example 127, 2-[2-(thiazolo[4,5-c]pyridin-2-ylmethylcarbamoyl)indan-2-yl]acetic acid], for which the inhibition at 50 µM in assay [1] was greater than 60%. Moreover, the Ki in assay [2] is 0.3 to 2 µM.

For the compound `O=C(O)CC1(C(=O)NCc2nccs2)Cc2ccccc2C1` [Example 54, 2-(2-((thiazol-2-ylmethyl)carbamoyl)-2,3-dihydro-1H-inden-2-yl)acetic acid], in assay [1], the inhibition at 50 µM is greater than 60%. For the same compound, the Ki in assay [2] was 0.3 to 2 µM.

Values taken from patent US11000511B2, “Chemical compounds as antibiotics” (priority 2017, dated 2021).
